How the values were obtained:
PC-3 = experiment: Anticancer activity against human PC-3 cells with PSMA knockout cells assessed as reduction in cell viability measured after 72 hrs by celltiter-glo assay; format: functional, cell-based; conditions: dose 0.313-20 µM
LNCaP C4-2B = experiment: Anticancer activity against PMSA positive human LNCaP C4-2B cells assessed as reduction in cell viability measured after 72 hrs by celltiter-glo assay; format: functional, cell-based; conditions: dose 0.313-20 µM
[1] = Drug uptake in PSMA positive human LNCaP C4-2B cells assessed as increase in fluorescence at 10 uM incubated for 10 mins by DAPI staining based confocal microscopy analysis; format: ADME, cell-based
[2] = Drug uptake in human PC-3 cells with PSMA knockout assessed as increase in fluorescence at 10 uM incubated for 10 mins by DAPI staining based confocal microscopy analysis; format: ADME, cell-based; conditions: pc-3, 10 min
[3] = Drug uptake in PSMA positive human LNCaP C4-2B cells assessed as increase in fluorescence at 10 uM incubated for 10 mins in presence of CTT1057 by DAPI staining based confocal microscopy analysis; format: ADME, cell-based
[4] = biological target: Glutamate carboxypeptidase 2 (Homo sapiens, UniProt Q04609); experiment: Irreversible inhibition of PSMA (unknown origin)
Sequence of Glutamate carboxypeptidase 2 (Q04609 whole entry): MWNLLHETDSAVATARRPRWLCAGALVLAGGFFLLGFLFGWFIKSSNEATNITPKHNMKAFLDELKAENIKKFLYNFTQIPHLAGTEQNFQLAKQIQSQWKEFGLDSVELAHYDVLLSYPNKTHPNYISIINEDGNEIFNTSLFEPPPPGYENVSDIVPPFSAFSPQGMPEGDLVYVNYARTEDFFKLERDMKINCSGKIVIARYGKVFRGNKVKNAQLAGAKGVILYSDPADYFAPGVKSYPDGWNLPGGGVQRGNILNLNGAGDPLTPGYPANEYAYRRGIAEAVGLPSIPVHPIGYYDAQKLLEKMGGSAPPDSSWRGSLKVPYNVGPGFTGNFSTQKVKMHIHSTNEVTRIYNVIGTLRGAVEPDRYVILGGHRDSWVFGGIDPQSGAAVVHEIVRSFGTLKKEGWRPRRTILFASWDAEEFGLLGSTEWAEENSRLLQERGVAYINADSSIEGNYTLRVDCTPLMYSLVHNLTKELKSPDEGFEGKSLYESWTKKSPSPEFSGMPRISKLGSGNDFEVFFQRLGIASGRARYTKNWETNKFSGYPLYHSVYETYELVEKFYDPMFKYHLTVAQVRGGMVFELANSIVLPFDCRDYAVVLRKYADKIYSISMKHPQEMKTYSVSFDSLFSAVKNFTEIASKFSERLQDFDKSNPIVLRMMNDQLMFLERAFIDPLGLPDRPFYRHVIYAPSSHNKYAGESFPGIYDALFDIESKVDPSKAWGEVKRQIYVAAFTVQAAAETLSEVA

Row | Compound | Activity (PC-3) | Activity (LNCaP C4-2B) | Drug uptake [1] | Drug uptake [2] | Drug uptake [3] | IC50 [4] [µM]
1 | COc1cccc2c1C(=O)c1c(O)c3c(c(O)c1C2=O)C[C@@](O)(C(=O)CO)C[C@@H]3O[C@H]1C[C@H](NC(=O)OCc2ccc(NC(=O)[C@H](CCCNC(N)=O)NC(=O)[C@@H](NC(=O)c3ccc(Cn4nnc5c4-c4ccccc4CN(C(=O)CCCCC(=O)NCCCCCC(=O)N[C@@H](CCC(=O)N[C@@H](CCCOP(=O)(O)N[C@@H](CCC(=O)O)C(=O)O)C(=O)O)C(=O)O)c4ccccc4-5)cc3)C(C)C)cc2)[C@H](O)[C@H](C)O1 | Dose-Dependent Effect | Dose-Dependent Effect | Active | Not Active | Not Active | –
2 | COc1cccc2c1C(=O)c1c(O)c3c(c(O)c1C2=O)C[C@@](O)(C(=O)CO)C[C@@H]3O[C@H]1C[C@H](N)[C@H](O)[C@H](C)O1 [DOXORUBICIN] | – | – | – | – | – | 10

Reference: ChEMBL document CHEMBL5625272, “A PSMA-targeted doxorubicin small-molecule drug conjugate” (Bioorg Med Chem Lett, 2024)
